Experiments:
Gli1 [1] = assay: Gli1 expression by qRT-PCR in anti-CD3ε-stimulated murine CD8+ CTLs; assay type: cell-based
Description: FIG. 1. L-type Cav channel agonists increase Gli1 expression and enhance specific cell killing by murine CD8+ CTLs. CD8^+ T cells were isolated from the spleen and inguinal lymph nodes of Rag2^−/− OT-I mice, and CTLs were generated. (A) Cells were restimulated on day 9/10 for 3 hours using plate-bound anti-CD3ε in the presence of indicated concentrations of FPL 64176 or carrier control. RNA was extracted and Gli1 expression was assessed by qRT-PCR. Data is n=3 independent experiments. us=unstimulated cells. (B) An LDH cytotoxicity assay was performed using OT-I CTLs. On day 7, CTLs were co-cultured with Ova peptide-pulsed EL-4 cells in the presence of 10 μM FPL 64176 (squares) or carrier control (circles). Data is n=4 independent experiments. (C) Updated experiment of (A). Data is now n=4 independent experiments. Data is normalised to Tbp as a reference gene. 0h=unstimulated cells. (D) Same data as (B) represented differently. […] Error bars indicate SD. p values were calculated using an unpaired two-tailed Student's t test (C) or a two-way ANOVA (B/D). * indicates p<0.05, ** indicates p<0.01, **** indicates p<0.0001.
FIG. 2. FPL 64176 but not (R)-Baclofen nor Nefiracetam enhance Gli1 expression in murine CD8+ CTLs. Naïve CD8^+ T cells were isolated from the spleens of OT-I Rag2^−/− mice and CTLs were generated. Cells were restimulated using an anti-CD3ε mAb in the presence indicated concentrations of (A) FPL 64176, (B) (R)-Baclofen or (C) Nefiracetam (or carrier control). CTLs were pre-incubated with the relevant pharmacological agents for 40-50 mins prior to stimulation (ensuring sufficient time for the agents, e.g., FPL 64176, to enter the cell. Gli1 expression was assessed by qRT-PCR. Data is n=2 independent experiments. Error bars indicate SD.
To investigate a potential role for L-type Cav channel agonists in modulating CD8+ CTL activation and effector function, CD8+ T cells were isolated from the spleen and inguinal lymph nodes of Rag2−/− OT-I mice and CTLs were generated. […] OT-I mice bear a transgene encoding for a TCR that recognises a chicken ovalbumin (Ova) peptide fragment. Rag2−/− OT-I mice facilitate the isolation of naïve CD8+ T cell populations. Plates were coated using 2.5 μg/mL anti-CD3ε mAb and CD8+ CTLs were stimulated for 3 hours via the TCR in the presence of 5 or 10 μM FPL 64176, an L-type Cav channel agonist, or carrier control. Note that CD8+ CTLs were pre-incubated with FPL 64176 or carrier control for 40-50 mins before stimulation. Gli1 expression was assessed using qRT-PCR.
In brief, naïve CD8+ T cells were isolated from the spleen and inguinal lymph nodes of C57BL/6 wildtype mice and CTLs were generated. […] RNA was extracted from cells and Gli1 expression was assessed by qRT-PCR. […]

GLI1 [2] = assay: GLI1 mRNA expression by qRT-PCR in human CD8+ T cells and CTLs; assay type: cell-based
Description: FIG. 3. L-type Cav channel agonists increase expression of GLI1 and enhance specific cell killing by human CD8+ CTLs. Naïve human CD8+ T cells were purified from the buffy coat layer of blood isolated from healthy donors, and were stimulated using ImmunoCult™ CD3/CD28/CD2 human T-Cell Activator and again restimulated at day 10 for 3 days. (A) Human CTLs were restimulated on day 15-20 for 24 h with plate-bound anti-CD3 in the presence of 10 μM of FPL64176 or carrier control before RNA was extracted for qRT-PCR analysis. n=1 healthy donor. TBP is used as a reference gene. (B) Updated graph of (A) showing n=3 independent experiments/healthy donors. Gli1 expression is normalised to carrier. […] Error bars indicate SD. p values were calculated using an unpaired two-tailed Student's t test (B) or a two-way ANOVA (C/D). * indicates p<0.05, ** indicates p<0.01, **** indicates p<0.0001.
In order to assess the role of L-type Cav channel agonists in controlling the activation and effector function of human CD8+ T cells, naive primary human CD8+ T cells were purified from the buffy coat layer of blood isolated from healthy donors. Cells were stimulated using ImmunoCult™ Human CD3/CD28/CD2 T Cell Activator beads for 24 hours in the presence of 5 or 10 μM FPL 64176 or carrier control, and GLI1 mRNA expression was assessed by qRT-PCR. […]

For `COC(=O)c1c(C)[nH]c(C)c1C(=O)c1ccccc1Cc1ccccc1` [FPL 64176], which “Gli1 expression following TCR activation” value (Gli1 [1]; anti-CD3ε restimulation 6 hours, indicated concentrations, vs carrier control (FIG. 2)) is on record?
Its value is “successfully enhances”.

What about the Gli1 expression (Gli1 [1]; anti-CD3ε stimulation 3 hours, 5 or 10 μM, pre-incubation 40-50 mins, vs carrier control) of the same compound?
Its Gli1 expression is “dose-dependent increase”.

And the GLI1 expression (GLI1 [2]; human CD8+ CTLs restimulated day 15-20 with plate-bound anti-CD3, 10 μM, 24 hours (FIG. 3B))?
Its GLI1 expression is “increase”.

What about the GLI1 expression (GLI1 [2]; naive human CD8+ T cells, CD3/CD28/CD2 activator 24 hours, 5 or 10 μM (FIG. 3A)) of the same compound?
Its GLI1 expression is “dose-dependent increase”.
